Measurements as given in PubChem BioAssay (NCI).
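Values below derive from 48-hour exposures of cells grown in 96-well plates, with endpoints linearly interpolated between the two concentrations bracketing the appropriate inhibition level. The concentration for 50% growth inhibition is given as GI50. TGI: total growth inhibition.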

Experiments:
Experiment in all cases: NCI tumour cell line growth inhibition, 48 h
[1] = tested on: A549 NSCLC
[2] = tested on: EKVX NSCLC
[3] = tested on: HCC-2998 colon
[4] = tested on: HOP-62 NSCLC
[5] = tested on: MDA-MB-435
[6] = tested on: NCI-H23 lung
[7] = tested on: OVCAR-5 ovarian
[8] = tested on: OVCAR-8 ovarian
[9] = tested on: SN12C renal
[10] = tested on: UACC-62 melanoma

Row | Structure (SMILES) | GI50 [1] [µM] | TGI [1] [µM] | GI50 [2] [µM] | TGI [2] [µM] | GI50 [3] [µM] | TGI [3] [µM] | GI50 [4] [µM] | TGI [4] [µM] | GI50 [5] [µM] | TGI [5] [µM] | GI50 [6] [µM] | TGI [6] [µM] | GI50 [7] [µM] | TGI [7] [µM] | GI50 [8] [µM] | TGI [8] [µM] | GI50 [9] [µM] | TGI [9] [µM] | GI50 [10] [µM] | TGI [10] [µM]
1 | O=C(CSc1nc2ccc([N+](=O)[O-])cc2[nH]1)Nc1cccc(Cl)c1 | 2.72 | 15.9 | 2.27 | 12.6 | 3.17 | 13.6 | 2.79 | 13 | 2.7 | 12.2 | 2.26 | 9.3 | 2.7 | 13.4 | 3.02 | > 39.1 | 2.46 | 10.8 | 1.59 | 10.3
2 | COC(=O)C(/C(=N/N)C(=O)Nc1ccc(C)c(C)c1)c1nc2ccc(Cl)cc2[nH]c1=O (stereo not given) | – | > 100 | – | > 100 | – | > 100 | – | > 100 | – | > 100 | – | > 100 | – | > 100 | – | > 100 | – | > 100 | – | > 100
3 | CCOC(=O)C1=C(N)Oc2c(sc3c(C)cccc23)C1c1ccc(Cl)cc1 (stereo not given) | 3.9 | 18.8 | 3.75 | 17.1 | 2.32 | 6.63 | 3.81 | 21.8 | 0.447 | 2.59 | 2.5 | 10.5 | 4.03 | 15.7 | 4.24 | 20.7 | 3.97 | 16.1 | 1.08 | 13.3
4 | Fc1ccc(CNc2c3ccccc3nc3ccccc23)cc1 | 2.84 | 10.8 | 2.61 | 11.4 | 1.95 | 4.62 | 3.58 | 16.7 | 1.89 | 4.07 | 2.36 | 8.57 | 2.41 | 9.25 | 2.64 | 12.5 | 2.64 | 10.5 | 2.58 | 9.13
5 | O=C(c1ccccn1)c1nnn2ccccc12 | – | > 100 | – | > 100 | – | > 100 | – | > 100 | – | > 100 | – | > 100 | – | > 100 | – | > 100 | – | > 100 | – | > 100
6 | COc1ccc2nc3cccc([N+](=O)[O-])c3c(NCCN(CCO)CCO)c2c1 | 0.0257 | 0.403 | 0.107 | 0.698 | 0.0137 | 0.0331 | 0.0304 | 0.153 | 0.0175 | 0.0406 | 0.0202 | 0.048 | 0.0291 | 0.138 | 0.014 | 0.138 | 0.0486 | 0.443 | 0.0311 | 0.109
7 | CC(C)(C)C(=O)OCOP(=O)(OCOC(=O)C(C)(C)C)C1CCCN(OC(=O)c2ccccc2)C1=O (stereo not given) | 2.02 | 25.2 | 0.999 | 50.7 | 0.99 | 5.86 | 1.9 | 18.7 | 3 | 17.6 | 1.51 | 9.74 | 4.1 | > 100 | 0.543 | 6.95 | 0.337 | 7.19 | 1.09 | 2.99
8 | CCCCCCCCCCCCOC1C(CNC(=O)C2OC3OC(C)(C)OC3C2NC(=O)CN2CCN(c3ccccn3)CC2)OC2OC(C)(C)OC21 (stereo not given) | 1.6 | 3.07 | 1.7 | 3.14 | 6.18 | 19.7 | 1.94 | 3.53 | 1.69 | 3.36 | 4.16 | 9.1 | 4.11 | 8.35 | 1.62 | 3.15 | 1.75 | 3.24 | 1.61 | 3.05
